Results taken from patent US7452505B2, “Method for analyzing blood test sample and dry analytical element and analytical kit utilizing the method” (Fujifilm Corporation, priority 2002, dated 2008).

Tested on: blood platelet-rich plasma
Experiment: Evaluation of LDH activity of blood platelet-rich plasma samples with surfactant (JSCC transferable method)
Type: cell-based, human
Settings: sample with 0.6% of surfactant, sample without surfactant taken as 100; 37° C.
Source text: (2) Evaluation of LDH Activity
In Table 2, “LDH activity” means the activity of the test sample with 0.6% of surfactant, assuming that that of the test sample without surfactant to be 100.

Molecule	LDH Activity
POE (6) perfluoroalkyl ethoxylate [Example F-1405]	102
POE (20) oleylether [EMALEX 520]	297
POE (10) octylether [Nissan Nonion]	694
C[C@H](CCC(=O)O)[C@H]1CC[C@H]2[C@@H]3CC[C@@H]4C[C@H](O)CC[C@]4(C)[C@H]3C[C@H](O)[C@]12C [deoxycholic acid, reference compound]	199
sodium α-olefin sufonate [NIKKOL OS-14]	212
POE (10) perfluoroalkyl [Example F-142D]	104
POE (5) oleylether [EMALEX 505]	295
POE (12) oleylether [EMALEX 512]	307
